Values quoted from earlier work, collected in patent US20160286792A1, “METHOD AND SYSTEM FOR PEST CONTROL” (priority 2013, published 2016).
Where two headings read alike, the source gives them in different places.

Key:
[1] = test system: termites
[2] = test system: humans
[3] = aqueous, at 25 degrees

For `Cc1c(COC(=O)[C@@H]2[C@H](/C=C(\Cl)C(F)(F)F)C2(C)C)cccc1-c1ccccc1` (racemic) [Bifenthrin], the length of protection ([1]; applied at 0.05% concentration) is listed as 10 years, the length of protection ([1]; applied at 0.1% concentration) is listed as “at least 10 years” and the length of protection ([1]; applied at 0.25% concentration) is listed as 3 years.
For `O=[N+]([O-])NC1=NCCN1Cc1ccc(Cl)nc1` [Imidacloprid], the toxicity to humans [2] is given as “low to medium toxicity” and the length of protection ([1]; applied at 0.25% concentration) is given as “up to 3 years”.
For `CCOP(=S)(OCC)Oc1nc(Cl)c(Cl)cc1Cl` [chlorpyrifos, Chlorpyrifos], the length of protection ([1]; concentration varies depending on the brand) is listed as “up to 5 years”.
In the case of calcium sulphate dihydrate [gypsum], the “concentration of saturated solution” value [3] is listed as 2000 to 2500 µg/mL.
